Experimental data from patent US20060069132A1, “Azolecarboxamide herbicides” (priority 2004, published 2006).

Legend:
barnyardgrass [1] = assay: Test A pre-/postemergence herbicide test; type: in vivo, Echinochloa crus-galli
Outline: (§1)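 Greenhouse injury scoring (0–100, complete control = 100) at approximately ten days follows simultaneous pre- and postemergence application. Soil received a directed spray after seeding; seedlings of 2–10 cm at the one- to two-leaf stage were sprayed to runoff.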

large crabgrass [2] = assay: Test A pre-/postemergence herbicide test; type: in vivo, Digitaria sanguinalis
Outline: as §1

giant foxtail [3] = assay: Test A pre-/postemergence herbicide test; type: in vivo, Setaria faberi
Outline: as §1

morningglory [4] = assay: Test A pre-/postemergence herbicide test; type: in vivo, Ipomoea spp.
Outline: as §1

redroot pigweed = assay: Test A pre-/postemergence herbicide test; type: in vivo, Amaranthus retroflexus
Outline: as §1

velvetleaf [5] = assay: Test A pre-/postemergence herbicide test; type: in vivo, Abutilon theophrasti
Outline: as §1

barnyardgrass [6] = assay: Test B pre-/postemergence herbicide test; type: in vivo, Echinochloa crus-galli; details: for Barnyardgrass plant response rating: postemergence
Outline: (§2)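 Seeds were planted and treated preemergence with compounds formulated in a non-phytotoxic solvent mixture containing surfactant, while plants at the 1- to 4-leaf stage (2 to 18 cm) received postemergence sprays. Flooded paddy plants were grown to the 2-leaf stage. After 13 to 15 days in a greenhouse, injury was visually rated 0–100 against untreated controls.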

Surinam grass = assay: Test B pre-/postemergence herbicide test; type: in vivo, Urochloa decumbens; details: for Surinam Grass plant response rating: postemergence
Outline: (§3)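 Response was scored visually 13 to 15 days after treatment against untreated greenhouse controls, 0 meaning no effect and 100 complete control. Formulations (solvent mixture plus surfactant) went onto soil after planting, onto foliage of 1- to 4-leaf plants, and onto 2-leaf plants in a flooded paddy set including rice and barnyardgrass.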

cocklebur = assay: Test B pre-/postemergence herbicide test; type: in vivo, Xanthium strumarium; details: for Cocklebur plant response rating: postemergence
Outline: as §2

corn = assay: Test B pre-/postemergence herbicide test; type: in vivo, Zea mays; details: for Corn plant response rating: postemergence
Outline: as §3

large crabgrass [7] = assay: Test B pre-/postemergence herbicide test; type: in vivo, Digitaria sanguinalis; details: for Crabgrass, Large plant response rating: postemergence
Outline: as §3

giant foxtail [8] = assay: Test B pre-/postemergence herbicide test; type: in vivo, Setaria faberi; details: for Foxtail, Giant plant response rating: postemergence
Outline: as §3

lambsquarters = assay: Test B pre-/postemergence herbicide test; type: in vivo, Chenopodium album; details: for Lambsquarters plant response rating: postemergence
Outline: as §3

morningglory [9] = assay: Test B pre-/postemergence herbicide test; type: in vivo, Ipomoea coccinea; details: for Morningglory plant response rating: postemergence
Outline: as §2

pigweed = assay: Test B pre-/postemergence herbicide test; type: in vivo, Amaranthus retroflexus; details: for Pigweed plant response rating: postemergence
Outline: as §3

velvetleaf [10] = assay: Test B pre-/postemergence herbicide test; type: in vivo, Abutilon theophrasti; details: for Velvetleaf plant response rating: postemergence
Outline: as §3

blackgrass = assay: Test B postemergence herbicide test; type: in vivo, Alopecurus myosuroides; details: postemergence
Outline: (§4)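 Postemergence plants were sprayed with formulated test chemicals at 2 to 18 cm height (1- to 4-leaf stage); paddy species were grown to the 2-leaf stage. After 13 to 15 days in a greenhouse, injury was rated visually against untreated controls on a 0–100 scale (0 = no effect, 100 = complete control).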

wheat = assay: Test B postemergence herbicide test; type: in vivo, Triticum aestivum; design: key to Wheat plant response rating: 0 = no effect, 100 = complete control; details: postemergence
Outline: (§5)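 Greenhouse test; postemergence application to plants at 1–4 leaves (2–18 cm); paddy species at 2 leaves; evaluated visually vs controls at 13–15 days; scale 0–100 (100 = complete control).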

wild oat = assay: Test B postemergence herbicide test; type: in vivo, Avena fatua; details: postemergence
Outline: as §5

rice = assay: Test B flooded paddy test; type: in vivo, Oryza sativa; details: scale 0 to 100 (0 no effect, 100 complete control)
Outline: as §4

[11] = system: small flower umbrella sedge; assay: Test B flooded paddy test; type: in vivo, Cyperus difformis; details: scale 0 to 100 (0 no effect, 100 complete control)
Outline: as §4

ducksalad = assay: Test B flooded paddy test; type: in vivo, Heteranthera limosa; details: scale 0 to 100 (0 no effect, 100 complete control)
Outline: as §4

barnyardgrass [12] = assay: Test B flooded paddy test; type: in vivo, Echinochloa crus-galli; details: scale 0 to 100 (0 no effect, 100 complete control)
Outline: as §4

[13] = Postemergence, 500 g ai/ha, 0 to 100 scale, 0 no effect, 100 complete control
[14] = Postemergence, 2000 g ai/ha, 0 to 100 scale, 0 no effect, 100 complete control
[15] = Preemergence, 2000 g ai/ha, visual rating, 0 to 100 scale (0 no effect, 100 complete control)
[16] = preemergence, 500 g ai/ha, visual injury, 0 to 100 scale (0 no effect, 100 complete control)
[17] = 125 g ai/ha, 0 is no effect, 100 is complete control, preemergence
[18] = 125 g ai/ha, visual rating, scale 0 (no effect) to 100 (complete control)
[19] = 500 g ai/ha, visual rating, 0 = no effect, 100 = complete control, preemergence
[20] = 500 g ai/ha, scale 0 to 100, 0 is no effect, 100 is complete control
[21] = Postemergence, 125 g ai/ha, 0 to 100 scale, 0 no effect, 100 complete control
[22] = preemergence, 125 g ai/ha, visual injury, 0 to 100 scale (0 no effect, 100 complete control)

CCn1nc(C(C)(C)C)cc1C(=O)Nc1cc(OC)ccc1F [Compound 347]
Barnyardgrass plant response rating (barnyardgrass [1]; [13]): 0 | Plant response rating, Barnyardgrass (barnyardgrass [1]; [14]): 0 | Barnyardgrass plant response rating (barnyardgrass [1]; [15]): 0 | Barnyardgrass plant response rating (barnyardgrass [1]; [16]): 0 | Crabgrass, Large plant response rating (large crabgrass [2]; [13]): 0 | Plant response rating, Crabgrass, Large (large crabgrass [2]; [14]): 0 | Crabgrass, Large plant response rating (large crabgrass [2]; [15]): 0 | Crabgrass, Large plant response rating (large crabgrass [2]; [16]): 0 | Foxtail, Giant plant response rating (giant foxtail [3]; [13]): 0 | Plant response rating, Foxtail, Giant (giant foxtail [3]; [14]): 0 | Foxtail, Giant plant response rating (giant foxtail [3]; [15]): 0 | Foxtail, Giant plant response rating (giant foxtail [3]; [16]): 0 | Morningglory plant response rating (morningglory [4]; [13]): 0 | Plant response rating, Morningglory (morningglory [4]; [14]): 0 | Morningglory plant response rating (morningglory [4]; [15]): 0 | Morningglory plant response rating (morningglory [4]; [16]): 0 | Pigweed plant response rating (redroot pigweed; [13]): 0 | Plant response rating, Pigweed (redroot pigweed; [14]): 0 | Pigweed plant response rating (redroot pigweed; [15]): 0 | Pigweed plant response rating (redroot pigweed; [16]): 0 | Velvetleaf plant response rating (velvetleaf [5]; [13]): 0 | Plant response rating, Velvetleaf (velvetleaf [5]; [14]): 0 | Velvetleaf plant response rating (velvetleaf [5]; [15]): 0 | Velvetleaf plant response rating (velvetleaf [5]; [16]): 0 | Plant response rating (0 to 100 scale), Barnyardgrass (barnyardgrass [6]; [17]): 0 | Barnyardgrass plant response rating (barnyardgrass [6]; [18]): 0 | Plant response rating, Barnyardgrass (barnyardgrass [6]; [19]): 0 | Barnyardgrass plant response rating (barnyardgrass [6]; [20]): 0 | Plant response rating (0 to 100 scale), Surinam Grass (Surinam grass; [17]): 0 | Surinam Grass plant response rating (Surinam grass; [18]): 0 | Plant response rating, Surinam Grass (Surinam grass; [19]): 0 | Surinam Grass plant response rating (Surinam grass; [20]): 0 | Plant response rating (0 to 100 scale), Cocklebur (cocklebur; [17]): 0 | Cocklebur plant response rating (cocklebur; [18]): 0 | Plant response rating, Cocklebur (cocklebur; [19]): 0 | Cocklebur plant response rating (cocklebur; [20]): 0 | Plant response rating (0 to 100 scale), Corn (corn; [17]): 0 | Corn plant response rating (corn; [18]): 0 | Plant response rating, Corn (corn; [19]): 0 | Corn plant response rating (corn; [20]): 0 | Plant response rating (0 to 100 scale), Crabgrass, Large (large crabgrass [7]; [17]): 0 | Crabgrass, Large plant response rating (large crabgrass [7]; [18]): 0 | Plant response rating, Crabgrass, Large (large crabgrass [7]; [19]): 0 | Crabgrass, Large plant response rating (large crabgrass [7]; [20]): 0 | Plant response rating (0 to 100 scale), Foxtail, Giant (giant foxtail [8]; [17]): 0 | Foxtail, Giant plant response rating (giant foxtail [8]; [18]): 0 | Plant response rating, Foxtail, Giant (giant foxtail [8]; [19]): 0 | Foxtail, Giant plant response rating (giant foxtail [8]; [20]): 0 | Plant response rating (0 to 100 scale), Lambsquarters (lambsquarters; [17]): 0 | Lambsquarters plant response rating (lambsquarters; [18]): 10 | Plant response rating, Lambsquarters (lambsquarters; [19]): 0 | Lambsquarters plant response rating (lambsquarters; [20]): 10 | Plant response rating (0 to 100 scale), Morningglory (morningglory [9]; [17]): 0 | Morningglory plant response rating (morningglory [9]; [18]): 0 | Plant response rating, Morningglory (morningglory [9]; [19]): 0 | Morningglory plant response rating (morningglory [9]; [20]): 10 | Plant response rating (0 to 100 scale), Pigweed (pigweed; [17]): 0 | Pigweed plant response rating (pigweed; [18]): 0 | Plant response rating, Pigweed (pigweed; [19]): 0 | Pigweed plant response rating (pigweed; [20]): 10 | Plant response rating (0 to 100 scale), Velvetleaf (velvetleaf [10]; [17]): 0 | Velvetleaf plant response rating (velvetleaf [10]; [18]): 0 | Velvetleaf plant response rating (velvetleaf [10]; [20]): 0 | Blackgrass plant response rating (blackgrass; [18]): 30 | Blackgrass plant response rating (blackgrass; [20]): 30 | Wheat plant response rating (wheat; [18]): 0 | Wheat plant response rating (wheat; [20]): 0 | Oat, Wild plant response rating (wild oat; [18]): 0 | Oat, Wild plant response rating (wild oat; [20]): 20 | Rice plant response rating (rice; 1000 g ai/ha): 0 | Sedge, Umbrella plant response rating ([11]; 1000 g ai/ha): 0 | Ducksalad plant response rating (ducksalad; 1000 g ai/ha): 0 | Barnyardgrass plant response rating (barnyardgrass [12]; 1000 g ai/ha): 0

CCn1nc(C(C)(C)C)nc1C(=O)Nc1cccc(C(=O)N(C)C)c1 [Compound 448]
Barnyardgrass plant response rating (barnyardgrass [1]; [21]): 90 | Barnyardgrass plant response rating (barnyardgrass [1]; [13]): 90 | Barnyardgrass plant response rating (barnyardgrass [1]; [22]): 95 | Barnyardgrass plant response rating (barnyardgrass [1]; [16]): 100 | Crabgrass, Large plant response rating (large crabgrass [2]; [21]): 75 | Crabgrass, Large plant response rating (large crabgrass [2]; [13]): 80 | Crabgrass, Large plant response rating (large crabgrass [2]; [22]): 45 | Crabgrass, Large plant response rating (large crabgrass [2]; [16]): 85 | Foxtail, Giant plant response rating (giant foxtail [3]; [21]): 85 | Foxtail, Giant plant response rating (giant foxtail [3]; [13]): 90 | Foxtail, Giant plant response rating (giant foxtail [3]; [22]): 80 | Foxtail, Giant plant response rating (giant foxtail [3]; [16]): 100 | Morningglory plant response rating (morningglory [4]; [21]): 15 | Morningglory plant response rating (morningglory [4]; [13]): 55 | Morningglory plant response rating (morningglory [4]; [22]): 60 | Morningglory plant response rating (morningglory [4]; [16]): 60 | Pigweed plant response rating (redroot pigweed; [21]): 70 | Pigweed plant response rating (redroot pigweed; [13]): 90 | Pigweed plant response rating (redroot pigweed; [22]): 100 | Pigweed plant response rating (redroot pigweed; [16]): 100 | Velvetleaf plant response rating (velvetleaf [5]; [21]): 60 | Velvetleaf plant response rating (velvetleaf [5]; [13]): 80 | Velvetleaf plant response rating (velvetleaf [5]; [22]): 15 | Velvetleaf plant response rating (velvetleaf [5]; [16]): 85 | Rice plant response rating (rice; 125 g ai/ha): 80 | Rice plant response rating (rice; 500 g ai/ha): 90 | Sedge, Umbrella plant response rating ([11]; 125 g ai/ha): 90 | Sedge, Umbrella plant response rating ([11]; 500 g ai/ha): 90 | Ducksalad plant response rating (ducksalad; 125 g ai/ha): 70 | Ducksalad plant response rating (ducksalad; 500 g ai/ha): 80 | Barnyardgrass plant response rating (barnyardgrass [12]; 125 g ai/ha): 90 | Barnyardgrass plant response rating (barnyardgrass [12]; 500 g ai/ha): 100
